Experiment: Toxicological evaluation of leachable chemicals of BACTELIDE (margin of safety)
Conditions: worst-case exposure: daily exposure, 100% bioavailability; leachables from BACTELIDE spray
Description: ISO 10993-18:2020 and ISO/TS 21726:2019 leachable studies were performed for BACTELIDE. Solutions of BACTELIDE were collected for analysis via the spraying. The extracts were analyzed by gas chromatography-mass spectrometry (GC-MS) for volatile to semi-volatile compounds, by liquid chromatography-mass spectrometry (LC-MS) for semi-volatile to nonvolatile compounds, and by inductively coupled plasma mass spectrometry (ICP-MS) for elemental (metal and other) components. After analysis, results were reported based on the evaluation criteria listed in the results section below. […] 2-(N,N-Diethylamino)ethyldecyl maleate (CAS #184874-09-7) was the most abundant. Regarding LC-MS results, thirty-nine reportable compounds were identified in the test article extracts in positive ion mode. Glycerol dipentadecanoate (CAS #121957-69-5) was the most abundant. Thirty-six reportable compounds were identified in the test article extracts in negative ion mode. 3-[4-[[4-(2-Oxiranylmethoxy)phenyl]methyl]phenoxy]-1,2-propanediol didodecanoate (CAS #not given) was the most abundant. […]
The MOS values for all chemicals (or groups of similar chemicals) and elements identified across the analytical methods ranged from 3 to 1340000. A few chemicals had calculated “near-1” (i.e. ≥1 but <10) MOS values. […] Their margins of safety were calculated using the ICH M7 less than 1 year TTC of 0.33. […]

SMILES: OCC(O)COc1ccc(Cc2ccc(OCC3CO3)cc2)cc1 (stereo not shown) [3-[4-[[4-(2-Oxiranylmethoxy)phenyl]methyl]phenoxy]-1,2-propanediols]
- MOS value (margin of safety): 3

Source: patent US20230092872A1, “Method for promoting wound healing” (Phagelux Canada Inc., priority 2021, published 2023)
